Patent US20080193428A1, “Composition and Method for Modulating and Maintaining Vaginal Bacterial Flora and Vaginal Acidity” (Shenzhen Phlora Biotechnology Limited, priority 2005, published 2008)

Tested on: lactobacilli
Assay: Inhibition of growth and acid-production of lactobacilli at different pH
Assay type: cell-based

benzoic acid [benzoic acid and/or its sodium salt]
inhibition effect on the growth and acid-production of lactobacilli (under a relatively high pH value (e.g., pH>4.6)): became weak | inhibition effect on the growth and acid-production of lactobacilli (under a relatively low pH value (e.g., pH<4.0)): relatively strong inhibition effect
